{"source": "patent US20230257393A1", "about": "“MACROMOLECULE-SUPPORTED THIENOAZEPINE COMPOUNDS, AND USES THEREOF” (BOLT BIOTHERAPEUTICS, INC., priority 2020, published 2023)", "key": {"human TLR7": {"biological_target": "T1, human TLR7 (Homo sapiens, UniProt Q9NYK1)", "T1 construct": "host or cells: HEK293 reporter cells", "T1 sequence (Q9NYK1 27-1049)": "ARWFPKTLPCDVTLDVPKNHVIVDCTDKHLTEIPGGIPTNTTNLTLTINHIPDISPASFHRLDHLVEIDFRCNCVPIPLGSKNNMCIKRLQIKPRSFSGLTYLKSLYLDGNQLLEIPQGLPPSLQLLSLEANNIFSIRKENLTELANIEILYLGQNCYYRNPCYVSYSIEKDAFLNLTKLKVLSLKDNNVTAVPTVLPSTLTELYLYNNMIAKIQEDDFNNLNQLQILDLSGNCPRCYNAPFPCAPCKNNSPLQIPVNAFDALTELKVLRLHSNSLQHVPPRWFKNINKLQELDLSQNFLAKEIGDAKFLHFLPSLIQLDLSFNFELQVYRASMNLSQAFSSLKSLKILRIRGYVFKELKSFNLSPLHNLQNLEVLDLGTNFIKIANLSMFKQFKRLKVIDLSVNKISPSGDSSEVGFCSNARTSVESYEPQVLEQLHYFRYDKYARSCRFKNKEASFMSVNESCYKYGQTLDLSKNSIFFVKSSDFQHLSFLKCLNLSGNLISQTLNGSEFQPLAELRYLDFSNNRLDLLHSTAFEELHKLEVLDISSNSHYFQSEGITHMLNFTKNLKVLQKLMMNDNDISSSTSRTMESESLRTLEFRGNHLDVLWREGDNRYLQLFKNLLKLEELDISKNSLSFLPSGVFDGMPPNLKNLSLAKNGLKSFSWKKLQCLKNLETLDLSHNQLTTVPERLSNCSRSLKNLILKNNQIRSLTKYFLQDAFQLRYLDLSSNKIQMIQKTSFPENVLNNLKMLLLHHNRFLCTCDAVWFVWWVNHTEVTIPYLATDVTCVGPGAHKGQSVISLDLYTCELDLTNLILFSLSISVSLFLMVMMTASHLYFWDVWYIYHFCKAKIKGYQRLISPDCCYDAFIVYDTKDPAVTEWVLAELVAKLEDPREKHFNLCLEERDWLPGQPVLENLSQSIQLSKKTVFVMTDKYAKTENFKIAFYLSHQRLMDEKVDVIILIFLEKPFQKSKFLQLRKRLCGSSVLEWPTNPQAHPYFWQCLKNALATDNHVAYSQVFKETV", "test": "HEK Reporter Assay, HEK293 NFKB reporter cells expressing human TLR7", "assay_type": "cell-based", "conditions": "read-out: HEK293 hTLR7 EC50", "method": "(§1) Each compound was synthesized, purified, and characterized by mass spectrometry and shown to have the mass indicated. Additional experimental procedures are found in the Examples. Activity against HEK293 NFKB reporter cells expressing human TLR7 or human TLR8 was measured according to Example 202.\n(§2) HEK293 reporter cells expressing human TLR7 or human TLR8 were purchased from Invivogen and vendor protocols were followed for cellular propagation and experimentation. Briefly, cells were grown to 80-85% confluence at 5% CO2 in DMEM supplemented with 10% FBS, Zeocin, and Blasticidin. Cells were then seeded in 96-well flat plates at 4×10^4 cells/well with substrate containing HEK detection medium and immunostimulatory molecules. Activity was measured using a plate reader at 620-655 nm wavelength."}, "human TLR8": {"biological_target": "T2, human TLR8 (Homo sapiens, UniProt Q9NR97)", "T2 construct": "host or cells: HEK293 reporter cells", "T2 sequence (Q9NR97 27-1041)": "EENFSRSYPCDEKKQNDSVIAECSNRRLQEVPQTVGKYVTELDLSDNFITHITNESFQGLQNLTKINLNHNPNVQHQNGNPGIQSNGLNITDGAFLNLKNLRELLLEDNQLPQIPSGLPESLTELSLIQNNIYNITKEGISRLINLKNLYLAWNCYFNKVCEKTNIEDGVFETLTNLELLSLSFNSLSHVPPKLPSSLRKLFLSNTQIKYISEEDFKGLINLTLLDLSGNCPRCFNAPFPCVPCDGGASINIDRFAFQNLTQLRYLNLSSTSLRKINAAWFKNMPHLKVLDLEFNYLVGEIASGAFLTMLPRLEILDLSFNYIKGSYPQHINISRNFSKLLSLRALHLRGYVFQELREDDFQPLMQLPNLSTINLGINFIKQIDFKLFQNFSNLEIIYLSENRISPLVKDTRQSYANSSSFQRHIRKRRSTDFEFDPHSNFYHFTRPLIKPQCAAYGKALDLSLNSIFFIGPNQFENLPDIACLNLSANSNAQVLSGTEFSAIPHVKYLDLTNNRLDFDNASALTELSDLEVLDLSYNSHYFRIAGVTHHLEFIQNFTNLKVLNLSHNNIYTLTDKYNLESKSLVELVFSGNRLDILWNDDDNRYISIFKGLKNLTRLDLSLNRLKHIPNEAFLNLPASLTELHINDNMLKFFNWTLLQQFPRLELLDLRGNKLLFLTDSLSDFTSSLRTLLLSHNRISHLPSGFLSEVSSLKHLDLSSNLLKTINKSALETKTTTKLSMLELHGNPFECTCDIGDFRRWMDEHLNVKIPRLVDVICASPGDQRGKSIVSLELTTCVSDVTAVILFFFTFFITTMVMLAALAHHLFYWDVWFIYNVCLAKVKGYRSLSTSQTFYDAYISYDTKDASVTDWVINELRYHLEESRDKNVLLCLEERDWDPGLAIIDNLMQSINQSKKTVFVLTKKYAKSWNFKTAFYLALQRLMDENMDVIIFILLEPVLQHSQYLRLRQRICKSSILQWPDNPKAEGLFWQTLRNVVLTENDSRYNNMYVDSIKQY", "test": "HEK Reporter Assay, HEK293 NFKB reporter cells expressing human TLR8", "assay_type": "cell-based", "conditions": "read-out: HEK293 hTLR8 EC50", "method": "as §1, §2"}}, "note": "Read-outs that look alike come from different tables or passages of the source.", "data": [{"smiles": "CCCN(CCC)C(=O)C1=Cc2sc(CC(=O)NCCN)cc2N=C(N)C1", "note": "[TAZ-120]", "values": [{"measurement": "EC50", "setting": "human TLR7; Table 1c", "value": "≥ 9", "unit": "µM"}, {"measurement": "EC50", "setting": "human TLR8; Table 1c", "value": "≥ 9", "unit": "µM"}]}, {"smiles": "CCCN(CCC)C(=O)C1=Cc2sc(-c3cccc(S(=O)(=O)N4CC(CO)C4)c3)cc2N=C(N)C1", "note": "[TAZ-4, 5-amino-2-[3-[3-(hydroxymethyl)azetidin-1-yl]sulfonylphenyl]-N,N-dipropyl-6H-thieno[3,2-b]azepine-7-carboxamide]", "values": [{"measurement": "EC50", "setting": "human TLR7; Table 1a", "value": "> 9", "unit": "µM"}, {"measurement": "EC50", "setting": "human TLR8; Table 1a", "value": "> 9", "unit": "µM"}]}, {"smiles": "CCCN(Cc1ccc(CNC(=O)OC(C)(C)C)cc1)C(=O)C1=Cc2sccc2N=C(N)C1", "note": "[TAZ-29, tert-butyl (4-((5-amino-N-propyl-6H-thieno[3,2-b]azepine-7-carboxamido)methyl)benzyl)carbamate]", "values": [{"measurement": "EC50", "setting": "human TLR7; Table 1a", "value": "> 9", "unit": "µM"}, {"measurement": "EC50", "setting": "human TLR8; Table 1a", "value": "> 9", "unit": "µM"}]}]}
